Results on one compound are retold here after patent US20210386709A1, “COMPOSITIONS AND METHODS FOR SUPPRESSING MSUT2” (United States Government As Represented By The Department …, priority 2020, published 2021).

“And” between values parts separate entries of the source, which are not always exact repeats. Identical values can stand only once.

The target of one experiment is T1, PABPN1 (Homo sapiens, UniProt Q86U42).
T1 construct: made in house; host or cells: E. coli BL21 (DE3)
T1 sequence (Q86U42 1-306): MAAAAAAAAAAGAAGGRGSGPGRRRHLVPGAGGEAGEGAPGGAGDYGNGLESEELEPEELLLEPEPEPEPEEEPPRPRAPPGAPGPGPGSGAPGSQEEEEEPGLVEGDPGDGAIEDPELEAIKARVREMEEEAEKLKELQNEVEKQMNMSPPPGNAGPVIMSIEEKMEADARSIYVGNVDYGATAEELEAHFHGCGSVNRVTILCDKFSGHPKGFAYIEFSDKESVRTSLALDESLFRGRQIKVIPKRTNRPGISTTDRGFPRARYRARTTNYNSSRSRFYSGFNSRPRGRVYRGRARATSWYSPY
Put plainly: Alpha Screen selectivity screen against PABPN1. The experiment is classed as binding. The settings on record: Alpha Screen dose response IC50s. On the procedure:
FIGS. 6A-B show the Selectivity screen. Compounds were screened by Alpha Screen (FIG. 6A) for MSUT2 and PABPN1 (FIG. 6B) dose response. IC50s indicated.
Alpha Screen Assay. Samples were set up in 384 well Perkin Elmer white opaque-bottom plates (PE06). A total reaction volume of […] was plated in 384 format using a CyBio Well Vario (6 μL of donor beads (10 μg/mL), 3 μL biotinylated RNA (250 nM), 3 μL GST-MSUT2 protein (250 nM) per well). 50 nL of compounds were transferred to wells via CyBio Vario equipped with Pin Tool. This mixture was incubated at room temperature for 30 minutes away from light. Next 3 μL of acceptor beads (1.25 μg/mL) was added. Plates were incubated at room temperature away from light for 60 minutes and subsequently read on a Perkin Elmer EnVision multimode microplate reader equipped with stackers using a standard 384-well Alpha Assay software protocol.
Screening of the Spectrum Collection. […] The hit window consisted of those compounds 7 standard deviations from the mean (FIG. 2a). In follow up dose-response testing, 11 of the 20 initial hits were validated and moved forward to further validation studies (FIG. 3). Unbound fluorescein-labeled RNA rapidly rotates in solution compared to MSUT2-bound. […] These four compounds were tested for an effect on cell viability using a HEK-cell model. […]

Experiment [1] addresses T2, Soluble epoxide hydrolase (gene EPXH2) (Homo sapiens, UniProt P34913).
T2 sequence (P34913 1-555): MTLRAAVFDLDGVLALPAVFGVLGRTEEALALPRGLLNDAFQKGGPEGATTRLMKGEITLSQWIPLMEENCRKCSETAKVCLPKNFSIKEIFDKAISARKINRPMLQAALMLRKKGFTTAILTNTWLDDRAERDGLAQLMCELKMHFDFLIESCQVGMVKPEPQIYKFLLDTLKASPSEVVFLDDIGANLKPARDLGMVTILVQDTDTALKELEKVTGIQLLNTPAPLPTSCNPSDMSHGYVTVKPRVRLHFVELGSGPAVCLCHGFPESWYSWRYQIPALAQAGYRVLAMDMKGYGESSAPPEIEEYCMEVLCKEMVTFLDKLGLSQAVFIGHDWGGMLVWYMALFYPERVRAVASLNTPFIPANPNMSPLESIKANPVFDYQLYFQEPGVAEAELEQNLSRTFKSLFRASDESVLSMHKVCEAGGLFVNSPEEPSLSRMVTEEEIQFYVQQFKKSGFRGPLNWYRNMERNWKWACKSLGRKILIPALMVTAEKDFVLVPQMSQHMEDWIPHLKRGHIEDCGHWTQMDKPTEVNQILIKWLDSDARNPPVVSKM
Conditions: read-out: Ki (nM) for Known Target; cited from earlier work.

With `O=c1c2ccccc2[se]n1-c1ccccc1` [Ebselen], the “fold selectivity for MSUT2 over PABPN1” value at PABPN1 was 5 fold and 4.6 fold. Also, the Ki in experiment [1] was 0.55 nM.
